Drawing on patent publication US11963948B1, “2-(4-chlorophenyl)-4,5-bis(4-chlorophenyl)-1H-imidazole as an antimicrobial compound” (KING FAISAL UNIVERSITY, priority 2023, dated 2024), this text covers inhibition zone and melting point for two compounds.

One series has as its system Bacillus cereus. In words: Agar plate disc-diffusion, antibacterial activity, Bacillus cereus. Format: cell-based. The note with it: Bacillus cereus (Gram positive), nutrient agar, 37° C., 48 h. The procedure: (§1) The agar plate disc-diffusion method was applied. […] The discs were then placed onto the surface of agar plates (nutrient agar for bacteria and Sabouraud's dextrose agar for fungi) seeded with the test organism. Each plate contained 15 mL of the agar medium, previously seeded with 0.2 mL of the broth culture of each organism pregrown for 18 hours. The plates were incubated at 37° C. for 48 h, and 72 h for fungi. The inhibition zones were measured in mm. Discs impregnated with DMSO were used as a control, and its inhibition zone was subtracted from the tested compound actual inhibition zone.
Background: A growth-free zone around the sample is the usual read-out of agar diffusion tests.

A further series has as its system Aspergillus flavus. The experiment in a line: Agar plate disc-diffusion, antifungal activity, Aspergillus flavus. The class given is cell-based. The note with it: Sabouraud's dextrose agar, 37° C., 72 h. The procedure:
The agar plate disc-diffusion method was applied. Sterilized filter papers (6 mm in diameter) were wetted with 10 μL of a solution of 2-(4-chlorophenyl)-4,5-bis(4-chlorophenyl)-1H-imidazole (IV) to be tested, containing 10 mg/mL in DMSO, and the discs were allowed to air dry. The discs were then placed onto the surface of agar plates (nutrient agar for bacteria and Sabouraud's dextrose agar for fungi) seeded with the test organism. Each plate contained 15 mL of the agar medium, previously seeded with 0.2 mL of the broth culture of each organism pregrown for 18 hours. The plates were incubated at 37° C. for 48 h, and 72 h for fungi. The inhibition zones were measured in mm. Discs impregnated with DMSO were used as a control, and its inhibition zone was subtracted from the tested compound actual inhibition zone.

The test system of another series is Pseudomonas aeruginosa. In words: Agar plate disc-diffusion, antibacterial activity, Pseudomonas aeruginosa. The class given is cell-based. The note with it: Pseudomonas aeruginosa (Gram negative), nutrient agar, 37° C., 48 h. The procedure: as §1
Series [1] has as its system Chrysosporium keratinophilum. The experiment in a line: Agar plate disc-diffusion, antifungal activity, Chrysosporium keratinophilum. As to conditions: Sabouraud's dextrose agar, 37° C., 72 h. Format: cell-based. As to the method:
as §1

For a further series, the system named is Escherichia coli. The experiment in a line: Agar plate disc-diffusion, antibacterial activity, Escherichia coli. The class given is cell-based. As to conditions: Escherichia coli (Gram negative), nutrient agar, 37° C., 48 h. The procedure: as §1
A further series has as its system Staphylococcus aureus. In words: Agar plate disc-diffusion, antibacterial activity, Staphylococcus aureus. Format: cell-based. As to conditions: Staphylococcus aureus (Gram positive), nutrient agar, 37° C., 48 h. As to the method: as §1
Where [2] appears, read: A = concentration of comp. = 10,000 μL.
Where [3] appears, read: B = concentration of comp. = 30,000 μL.
Setting [4] is: C = concentration of comp. = 50,000 μL.
Setting [5] is: A = concentration of comp. = 10,000 µg/mL.

By melting point is commonly meant the temperature, or range, at which the solid turns liquid. Regarding `Clc1ccc(-c2nc(-c3ccc(Cl)cc3)c(-c3ccc(Cl)cc3)[nH]2)cc1` [IV, 2-(4-chlorophenyl)-4,5-bis(4-chlorophenyl)-1H-imidazole], the melting point was in the range of 211 to 212 °C. Moreover, the inhibition zone in the series on Bacillus cereus (setting [2]) came to 25 mm. The compound also gave an inhibition zone in the series with Bacillus cereus (setting [3]) of 27 mm. In addition, the inhibition zone in the series with Bacillus cereus (setting [4]) is recorded as 40 mm. In the series with Aspergillus flavus (setting [2]), the inhibition zone is on record as 23 mm. In the series with Aspergillus flavus (setting [3]), this compound gave an inhibition zone of 25 mm. The same compound displayed an inhibition zone in the series on Aspergillus flavus (setting [4]) of 33 mm. Further, the inhibition zone with Pseudomonas aeruginosa (setting [5]) is recorded as 24 mm. This compound also had an inhibition zone with Pseudomonas aeruginosa (setting [3]) of 26 mm. In the series with Pseudomonas aeruginosa (setting [4]), the inhibition zone was determined as 43 mm. Further, the inhibition zone in series [1] (setting [2]) was found to be 22 mm. In series [1] (setting [3]), this compound yielded an inhibition zone of 27 mm. This compound yielded an inhibition zone in series [1] (setting [4]) of 40 mm. Further, in the series with Escherichia coli (setting [2]), the inhibition zone is recorded as 25 mm. Besides, in the series with Escherichia coli (setting [3]), the inhibition zone turned out to be 30 mm. In the series on Escherichia coli (setting [4]), this compound came in with an inhibition zone of 48 mm. Further, in the series with Staphylococcus aureus (setting [2]), the inhibition zone is listed as 17 mm. The inhibition zone in the series with Staphylococcus aureus (setting [3]) was found to be 23 mm. The inhibition zone in the series with Staphylococcus aureus (setting [4]) stood at 34 mm.
`O=C(O)c1cn(C2CC2)c2cc(N3CCNCC3)c(F)cc2c1=O` [Cip., ciprofloxacin, reference compound]: the inhibition zone with Bacillus cereus (setting [2]) is 29 mm; in the series on Bacillus cereus (setting [3]), 30 mm; in the series on Bacillus cereus (setting [4]), 42 mm; with Aspergillus flavus (setting [2]) it was 29 mm; with Aspergillus flavus (setting [3]) it was 30 mm; in the series with Aspergillus flavus (setting [4]) it was 42 mm. The inhibition zone in the series on Pseudomonas aeruginosa (setting [5]) was 29 mm; in the series on Pseudomonas aeruginosa (setting [3]), 30 mm; with Pseudomonas aeruginosa (setting [4]) it was 53 mm; in series [1] (setting [2]), 29 mm; in series [1] (setting [3]), 30 mm; in series [1] (setting [4]), 53 mm. In addition, the inhibition zone in the series on Escherichia coli (setting [2]) came to 30 mm; with Escherichia coli (setting [3]), 39 mm; with Escherichia coli (setting [4]), 60 mm; with Staphylococcus aureus (setting [2]), 43 mm; in the series with Staphylococcus aureus (setting [3]) it was 44 mm; with Staphylococcus aureus (setting [4]), 53 mm.
